Measurements: patent US20230381201A1, “METHODS AND COMPOSITIONS FOR TREATING FIBROTIC DISEASES” (MAX BioPharma, Inc., priority 2020, published 2023)

Experiments:
[1] = system: IMR-90 cells; test: IMR-90 lung fibroblast cell proliferation (cell count); format: cell-based; conditions: IMR-90 normal human lung fibroblast cells, DMEM 1% FBS, 5 days; FIG. 5, p<0.01 vs. control
Procedure: IMR-90 cells were treated with Oxy210 at the concentrations as indicated in DMEM containing 1% FBS for 5 days and then were trypsinized and counted.

[2] = system: TGFβ target genes; test: Basal expression of TGFβ target genes by Q-RT-PCR in primary human liver stellate cells; format: cell-based; conditions: DMEM 1% FBS, 48 hours, normalized to GAPDH, FIG. 1, p<0.01 vs. control
Procedure: Primary human liver stellate cells were treated in DMEM containing 1% fetal bovine serum (FBS) for 24 hours. Next, they were treated with control vehicle or Oxy210. After 48 hours, RNA was extracted and analyzed by Q-RT-PCR for the expression of the genes as indicated and normalized to GAPDH expression.

[3] = system: Primary human renal proximal tubular epithelial cells; test: TGFβ-induced epithelial mesenchymal transition (EMT) of renal tubular epithelial cells, Q-RT-PCR of EMT markers and Gli1; format: cell-based; conditions: TGFβ 10 ng/mL, 48 hours, FIG. 4, p<0.01 vs. TGFβ
Procedure: Primary human renal proximal tubular epithelial cells cultured in RPMI containing 1% FBS were treated with TGFβ (10 ng/mL) in the absence or presence of Oxy210 for 48 hours. RNA was extracted and analyzed by Q-RT-PCR for the expression of the EMT markers and Gli1 and normalized to GAPDH expression.

[4] = system: profibrogenic genes; test: Basal expression of profibrogenic genes by Q-RT-PCR in primary human pericytes; format: cell-based; conditions: DMEM 5% FBS, 72 hours, normalized to GAPDH, FIG. 2, p<0.01 vs. control
Procedure: Primary human pericytes were treated with control vehicle or Oxy210 for 72 hours in DMEM containing 5% FBS. RNA was extracted and analyzed by Q-RT-PCR for the expression of profibrotic genes and normalized to GAPDH expression.

[5] = system: IMR-90 cells; test: Basal profibrotic gene expression by Q-RT-PCR in IMR-90 cells; format: cell-based, human; conditions: F12K 1% FBS, 72 hours, FIG. 7
Procedure: IMR-90 cells were treated in F12K medium containing 1% FBS and Oxy210 at the indicated concentrations for 72 hours. RNA was then extracted and analyzed by Q-RT-PCR for the expression of the genes as indicated and normalized to GAPDH expression.

[6] = system: C57BL/6 mice; test: Bleomycin-induced pulmonary fibrosis in mice, H&E staining of lung sections; format: in vivo; conditions: bleomycin once intratracheally, FIG. 10
Procedure: C57BL/6 mice were treated once intratracheally with bleomycin with or without pirfenidone or Oxy210.

[7] = system: LL97A cells; test: TGFβ-induced COL1A1 and a-SMA expression by Q-RT-PCR in LL97A cells; format: cell-based, human; conditions: 48 hours, FIG. 8
Procedure: LL97A cells were pretreated in F12K medium containing 1% FBS for 24 hours and then the cells were treated with TGFβ in the absence or presence of Oxy210 at the indicated concentrations. After 48 hours, RNA was extracted and analyzed by Q-RT-PCR for the expression of the genes as indicated and normalized to GAPDH expression.

[8] = system: LL97A cells; test: Basal COL1A1 expression by Q-RT-PCR in LL97A cells; format: cell-based, human; conditions: F12K 1% FBS, 72 hours, FIG. 9, p<0.01 vs control
Procedure: LL97A cells were treated in F12K medium containing 1% FBS and Oxy210 at the indicated concentrations for 72 hours. RNA was then extracted and analyzed by Q-RT-PCR for the expression of the genes as indicated and normalized to GAPDH expression.

[9] = system: LL97A cells; test: LL97A lung fibroblast cell proliferation (cell count); format: cell-based; conditions: LL97A human lung fibroblast cells from a subject with idiopathic pulmonary fibrosis, F12K 1% FBS, 5 days; FIG. 6
Procedure: LL97A cells were treated with Oxy210 at the concentrations as indicated in F12K containing 1% FBS for 5 days and then were trypsinized and counted.

C[C@]12CC[C@H]3[C@@H](CC=C4C[C@@H](O)CC[C@@]43C)[C@@H]1CC[C@@H]2[C@](C)(O)CCc1cccnc1 [Oxy210] was tested, and the cell proliferation [1] was “inhibition of IMR-90 normal human lung fibroblast cell proliferation”, the “basal expression of TGFβ target genes” value [2] was “inhibition of basal expression of TGFβ target genes” and the “TGFβ-induced epithelial mesenchymal transition (EMT)” value [3] was “inhibition of TGFβ-induced epithelial mesenchymal transition (EMT)”. The “basal expression of profibrogenic genes” value [4] was “inhibition of basal expression of profibrogenic genes”, the “basal profibrotic gene expression” value [5] was “inhibits basal profibrotic gene expression” and the “bleomycin-induced damages to the lung architecture” value [6] was “clear beneficial effect”. For the same compound, the “TGFβ-induced COL1A1 expression” value [7] was “inhibits”, the “TGFβ-induced a-SMA expression” value [7] was “inhibits” and the “basal COL1A1 expression” value [8] was “inhibits basal COL1A1 expression”. The cell proliferation [9] was “inhibition of proliferation of LL97A human lung fibroblast cells”.
